# Assay results published in publication PMC11915801, “Evolutionary trajectory of bacterial resistance to antibiotics and antimicrobial peptides in Escherichia coli” (mSystems, 2025).
# Read-outs that look alike come from different tables or passages of the source. Where a SMILES comes first, the peptide text is derived from it.
# How the values were obtained:
# [1] = system: chloramphenicol-resistant strains (CHL80); assay: Disk diffusion experiment, chloramphenicol-resistant strains; assay type: cell-based, Escherichia coli; conditions: drug 2,048 µg/mL, LB agar, 37°C 24 h
# Description: (§1) Fifty microliters of bacterial cultures was spread evenly onto LB agar. A prepared circular sterile filter paper was pasted on the center of the petri dish, and the corresponding drugs with a concentration of 2,048 µg/mL were dropped on the center of the circular filter paper. The petri dishes were placed at 37°C for 24 h, and the diameters of the sterile growth circles were measured.
# [2] = system: G. mellonella larvae infected with chloramphenicol-resistant strains; assay: G. mellonella infection protection model, chloramphenicol-resistant strain; assay type: in vivo, Galleria mellonella; conditions: monotreatment 30 mg/kg at 1 h post-infection, 5 days, n = 8 per group
# Description: (§2) The bacterial culture was uniformly diluted with saline to an OD600 of 0.35. G. mellonella larvae (n = 8 per group) were randomly divided, and sterile saline was used as the blank control. In the virulence assessment, 10 µL of bacterial solution was inoculated into each larva using a Hamilton syringe. The survival of larvae was observed and recorded daily for 7 days.
# (§3) For the larval infection protection model, larvae were infected with wild-type and antibiotic-resistant strains and treated with a dose of 30 mg/kg of drugs at the left foot of the last gastropod at 1 h post-infection, and the survival was monitored for 5 days.
# [3] = system: G. mellonella larvae infected by the original MG1655; assay: G. mellonella infection protection model, original MG1655; assay type: in vivo, Galleria mellonella; conditions: monotreatment 30 mg/kg at 1 h post-infection, 5 days, n = 8 per group
# Description: as §2, §3
# E. coli K-12 MG1655 = assay: microbe, parasite or virus in culture; assay type: cell-based, Escherichia coli; conditions: Escherichia coli
# Description: (§4) The broth microdilution method was used to measure the MIC values of antibiotics and peptides according to the Clinical and Laboratory Standards Institute guidelines. The MIC value is defined as the lowest drug concentration without visible bacteria.
# Eight antibiotics and ten AMPs at the sub-inhibitory concentration were prepared. A 300-µL system, including 260 µL of MH broth, 30 µL of prepared drug, and 10 µL of bacterial culture, was used for resistance passages. After 12 h of incubation at 37℃ and 200 rpm, 10 µL of the above bacterial culture was added into the new sterile drug-containing broth. MIC values of bacterial culture were determined. The drug concentration was adjusted according to the MIC value change until the end of the 120 passages.
# AMP120 (evolved MG1655) = assay: microbe, parasite or virus in culture; assay type: cell-based, Escherichia coli; conditions: Escherichia coli, MG1655; broth microdilution; ampicillin-evolved strain
# Text: (§5) To ensure the stable resistance evolution and inheritance of MG1655 under different drugs, we randomly selected three monoclonals from the evolved strains. The final antibiotic-evolved strains were designated as AMP120, AZI120, CHL80, CIP120, DOX120, KAN80, NIT70, and TMP30, while the final AMP-evolved strains were named COL120, Ind120, Omi120, Pex120, PGLA120, Pleu120, R8120, SAAP120, LI120, and SLAP120.
# as §4
# AZI120 (evolved MG1655) = assay: microbe, parasite or virus in culture; assay type: cell-based, Escherichia coli; conditions: Escherichia coli, MG1655; broth microdilution; azithromycin-evolved strain
# Text: as §5, §4
# CHL80 (evolved MG1655) = assay: microbe, parasite or virus in culture; assay type: cell-based, Escherichia coli; conditions: Escherichia coli, MG1655; broth microdilution; chloramphenicol-evolved strain
# Text: as §5, §4
# CIP120 (evolved MG1655) = assay: microbe, parasite or virus in culture; assay type: cell-based, Escherichia coli; conditions: Escherichia coli; broth microdilution; ciprofloxacin-evolved strain
# Text: as §5, §4
# COL120 (evolved MG1655) = assay: microbe, parasite or virus in culture; assay type: cell-based, Escherichia coli; conditions: Escherichia coli, MG1655; broth microdilution; colistin-evolved strain
# Text: as §5, §4
# DOX120 (evolved MG1655) = assay: microbe, parasite or virus in culture; assay type: cell-based, Escherichia coli; conditions: Escherichia coli, MG1655; broth microdilution; doxycycline-evolved strain
# Text: as §5, §4
# KAN80 (evolved MG1655) = assay: microbe, parasite or virus in culture; assay type: cell-based, Escherichia coli; conditions: Escherichia coli, MG1655; broth microdilution; kanamycin-evolved strain
# Text: as §5, §4
# NIT70 (evolved MG1655) = assay: microbe, parasite or virus in culture; assay type: cell-based, Escherichia coli; conditions: Escherichia coli, MG1655; broth microdilution; nitrofurantoin-evolved strain
# Text: as §5, §4
# TMP30 (evolved MG1655) = assay: microbe, parasite or virus in culture; assay type: cell-based, Escherichia coli; conditions: for MIC: Escherichia coli, MG1655, broth microdilution, trimethoprim-evolved strain
# Text: as §5, §4
# MG1655 WT = assay: microbe, parasite or virus in culture; assay type: cell-based; conditions: Escherichia coli, MG1655, read-out: MIC values of MG1655 with gene silencing, WT
# Text: as §4
# (§6) The engineered CRISPR/CRISPR-associated protein 9 (Cas9) system was used to repress the dnaA, deoB, icd, and thyA genes. Briefly, spacer 1 (5-[…]-3), spacer 2 (5-[…]-3), spacer 3 (5-[…]-3), and spacer 4 (5-[…]-3) were synthesized, and then, the construction of the targeting plasmid psgRNA was performed in a total volume of 25 µL. Subsequently, 1.5 µL of each newly constructed psgRNA and dCas9 was simultaneously electroporated into the competent cells of MG1655. MG1655 containing unmodified psgRNA and dCas9 was used as a control. Anhydrotetracycline at a final concentration of 0.5 µg/mL was used to induce gene repression. RT-qPCR was used to verify the expression of the genes.
# MG1655 dnaA-i = assay: MIC, CRISPRi dnaA-repressed MG1655; assay type: cell-based; conditions: Escherichia coli, broth microdilution, CRISPRi repression of dnaA, anhydrotetracycline 0.5 µg/mL, read-out: MIC values of MG1655 with gene silencing, dnaA-i
# Text: as §4, §6
# MG1655 deoB-i = assay: MIC, CRISPRi deoB-repressed MG1655; assay type: cell-based; conditions: Escherichia coli, broth microdilution, CRISPRi repression of deoB, read-out: MIC values of MG1655 with gene silencing, deoB-i
# Text: as §4, §6
# MG1655 icd-i = assay: MIC, CRISPRi icd-repressed MG1655; assay type: cell-based; conditions: Escherichia coli, broth microdilution, CRISPRi repression of icd, read-out: MIC values of MG1655 with gene silencing, icd-i
# Text: as §4, §6
# MG1655 thyA-i = assay: MIC, CRISPRi thyA-repressed MG1655; assay type: cell-based, Escherichia coli; conditions: for MIC: Escherichia coli, MG1655, broth microdilution, CRISPRi repression of thyA, read-out: MIC values of MG1655 with gene silencing, thyA-i
# Text: as §4, §6
# [4] = system: chloramphenicol-resistant bacteria (CHL80); conditions: 15-min exposure, tenfold the MIC of MG1655, 1 × 10^6 CFU log-phase, CFU counting
# Description: (§7) Bacteria were cultured at 37°C and 200 rpm to the logarithmic phase (1 × 10^6 CFU). The corresponding drugs, with a final concentration of tenfold the MIC of MG1655, were added. At 15, 30, 60, 90, and 120 min, 50 µL of the mixture was serially diluted 10-fold and dropped on an LB agar plate for CFU counting.
# original MG1655 = conditions: tenfold the MIC of MG1655, 15-120 min, CFU counting
# Description: as §7
# [5] = system: trimethoprim-resistant strains (TMP30); assay: Disk diffusion experiment, trimethoprim-resistant strains; assay type: cell-based, Escherichia coli; conditions: drug 2,048 µg/mL, LB agar, 37°C 24 h
# Description: as §1
# [6] = system: mice infected with MG1655; conditions: 5.0 × 10^8 CFU i.p.; trimethoprim 60 mg/kg i.p. 1 h after infection; organs at 48 h; n = 6
# Description: Female BALB/c mice aged 6 to 8 weeks were randomly divided into four groups with six replicates for each group. Of bacterial suspension, 5.0 × 10^8 CFU was intraperitoneally injected to mice for 1 h, followed by a second intraperitoneal injection of trimethoprim (60 mg/kg) or pexiganan (10 mg/kg) or a combination of trimethoprim and pexiganan (30 + 5 mg/kg). The PBS injection group was used as a control. After 48 h, the liver, spleen, and kidneys of the mice were aseptically removed for CFU measurement.
# [7] = MG1655, 12 h, read-out: MIC of MG1655 under the pressure of the same drug, generation 10
# [8] = MG1655, read-out: MIC of MG1655 under the pressure of the same drug, generation primary
# [9] = MG1655, as E2, generation 20, read-out: MIC of MG1655 under the pressure of the same drug, generation 20
# [10] = MG1655, as E2, generation 30, read-out: MIC of MG1655 under the pressure of the same drug, generation 30
SMILES,MIC (E. coli K-12 MG1655; [7]) [µg/mL],MIC (E. coli K-12 MG1655; [8]) [µg/mL],MIC (E. coli K-12 MG1655; [9]) [µg/mL],MIC (E. coli K-12 MG1655; [10]) [µg/mL],MIC (AMP120 (evolved MG1655)) [µg/mL],MIC (AZI120 (evolved MG1655)) [µg/mL],MIC (CHL80 (evolved MG1655)) [µg/mL],MIC (CIP120 (evolved MG1655)) [µg/mL],MIC (COL120 (evolved MG1655)) [µg/mL],MIC (DOX120 (evolved MG1655)) [µg/mL],MIC (KAN80 (evolved MG1655)) [µg/mL],MIC (NIT70 (evolved MG1655)) [µg/mL],MIC (TMP30 (evolved MG1655)) [µg/mL],MIC (MG1655 WT) [µg/mL],MIC (MG1655 dnaA-i) [µg/mL],MIC (MG1655 deoB-i) [µg/mL],MIC (MG1655 icd-i) [µg/mL],MIC (MG1655 thyA-i) [µg/mL],further results
"CC[C@H](C)[C@H](NC(=O)[C@H](CCCNC(=N)N)NC(=O)[C@H](CS)NC(=O)[C@H](CC(C)C)NC(=O)[C@H](CCCCN)NC(=O)[C@H](CCCCN)NC(=O)[C@H](CC(C)C)NC(=O)[C@@H](NC(=O)[C@H](CCCNC(=N)N)NC(=O)[C@H](CS)NC(=O)[C@H](CC(C)C)NC(=O)[C@H](CCCCN)NC(=O)[C@H](CCCCN)NC(=O)[C@@H](N)CC(C)C)[C@@H](C)CC)C(=O)O [LI, LI14] (H-LKKLCRILKKLCRI-OH; N-terminus and C-terminus assumed)",–,–,–,–,–,–,–,–,–,–,–,–,–,–,–,–,–,–,inhibition halo on chloramphenicol-resistant strains (in words) [1]: noticeable inhibitory effect; survival rate of larvae infected with chloramphenicol-resistant strains [2]: 62.5%; survival of larvae infected by the original MG1655 [3]: all larvae infected by the original MG1655 died
"O=C1CN(/N=C/c2ccc([N+](=O)[O-])o2)C(=O)N1 [NIT, Nitrofurantoin]",16,16,16,64,16,16,4,16,8,16,8,512,4,16,16,16,16,8,"MIC (E. coli K-12 MG1655; MG1655, as E2, generation 40, read-out: MIC of MG1655 under the pressure of the same drug, generation 40): 64 µg/mL; MIC (E. coli K-12 MG1655; MG1655, as E2, generation 50, read-out: MIC of MG1655 under the pressure of the same drug, generation 50): 128 µg/mL; MIC (E. coli K-12 MG1655; MG1655, as E2, generation 60, read-out: MIC of MG1655 under the pressure of the same drug, generation 60): 256 µg/mL; MIC (E. coli K-12 MG1655; MG1655, as E2, generation 70, read-out: MIC of MG1655 under the pressure of the same drug, generation 70): 512 µg/mL; collateral sensitivity of TMP30 (fold change of MIC vs wild-type MG1655) (TMP30 (evolved MG1655); MIC of TMP30 compared with MG1655): exceeding fourfold; killing of chloramphenicol-resistant bacteria (CFU) [4]: completely eradicated; CFU reduction of original MG1655 (original MG1655): decreased by less than one-log; inhibition halo on trimethoprim-resistant strains (in words) [5]: significant inhibitory effect"
"COc1cc(Cc2cnc(N)nc2N)cc(OC)c1OC [TMP, Trimethoprim]",128,64,128,512,128,64,128,128,128,128,128,128,512,64,64,128,128,256,"increase in MIC in thyA-i strains vs original MG1655 (MG1655 thyA-i; CRISPRi thyA repression): four-fold increase in MIC; bacterial loads in the liver, spleen, and kidneys of mice infected with MG1655 [6]: decreased significantly"
